Test results taken from patent US20200121652A1, “COMPOUNDS HAVING CASPASE INHIBITORY ACTIVITY, PHARMACEUTICAL AGENT CONTAINING SAID COMPOUNDS AND FOR TREATING OR PREVENTING CORNEAL ENDOTHELIAL SYMPTOMS, DISORDERS, OR DISEASES, AND APPLICATION OF SAID PHARMACEUTICAL AGENT” (The Doshisha, priority 2017, published 2020).
Where a name gives a salt, the structure may show the parent alone.

Test system: immortalized Fuchs' endothelial corneal dystrophy cells
Test: Concentration-dependent caspase 3/7 activity under TGF-β2 stimulation (Example 3)
Format: cell-based
Conditions: Homo sapiens, TGF-β2 10 ng/mL, 28 hours; for activity at 10 µM: agent 10 μM; for activity at 0.01 µM: agent 10 nM; for activity at 0.1 µM: agent 100 nM; for activity at 1 µM: agent 1 μM; for activity at 0.001 µM: agent 1 nM
Method: 7×10^3 immortalized Fuchs' endothelial corneal dystrophy cells were seeded on a 96-well plate and were cultured for 24 hours under the condition of 5% CO2 at 37° C.
After 28 hours under the condition of 5% CO2 at 37° C., cell morphology was observed using a phase difference microscope. Caspase 3/7 activity was then measured using Caspase-Glo 3/7 Assay (Promega, #G8091). DMEM+2% FBS+1% P/S was used as the medium. Caspase 3/7 activity and cell viability in this example were measured using GloMax-Multi Detection System (Promega, E7051).
Caspase 3/7 activity below 80% was used as a indicator indicating whether an agent can be used for treating or preventing a corneal endothelial condition, disorder, or disease, or whether an agent can be used as a caspase inhibitor (the underlines in FIG. 4A-1, FIG. 4A-2 and FIG. 4A-3, and FIG. 4B-1, FIG. 4B-2 and FIG. 4B-3).

| Structure (SMILES) | activity at 10 µM | activity at 0.01 µM | activity at 0.1 µM | activity at 1 µM | activity at 0.001 µM | activity at 1 pM (agent 1 pM) | activity at 10 pM (agent 10 pM) |
| --- | --- | --- | --- | --- | --- | --- | --- |
| CC(=O)Oc1ccccc1C(=O)Nc1ncc([N+](=O)[O-])s1 [Nitazoxanide] | ≤ 80% |  |  |  |  |  |  |
| C[C@@H]1C[C@H]2[C@@H]3CCC4=CC(=O)C=C[C@]4(C)[C@@]3(F)[C@@H](O)C[C@]2(C)[C@@]1(O)C(=O)CO [Dexamethasone] | ≤ 80% | ≤ 80% | ≤ 80% | ≤ 80% |  |  |  |
| CCCC1O[C@@H]2C[C@H]3[C@@H]4CCC5=CC(=O)C=C[C@]5(C)[C@H]4[C@@H](O)C[C@]3(C)[C@]2(C(=O)CO)O1 (some centres unmarked) [Budesonide] | ≤ 80% | ≤ 80% | ≤ 80% | ≤ 80% | ≤ 80% |  |  |
| CC1(C)O[C@@H]2C[C@H]3[C@@H]4CCC5=CC(=O)C=C[C@]5(C)[C@H]4[C@@H](O)C[C@]3(C)[C@]2(C(=O)CO)O1 [Desonide] | ≤ 80% |  | ≤ 80% | ≤ 80% |  |  |  |
| COC(=O)C1=C(C)NC(C)=C(C(=O)OCC(C)C)C1c1ccccc1[N+](=O)[O-] (centres unmarked) [Nisoldipine] | ≤ 80% |  |  |  |  |  |  |
| C[C@H]1C[C@@H]2[C@H]([C@@H](O)C[C@@]3(C)[C@H]2CC[C@]3(O)C(=O)CO)[C@@]2(C)C=CC(=O)C=C12 [Methylprednisolone] | ≤ 80% |  | ≤ 80% | ≤ 80% |  |  |  |
| CC(=O)OCC(=O)[C@@]1(O)CC[C@H]2[C@@H]3CCC4=CC(=O)CC[C@]4(C)[C@@]3(F)[C@@H](O)C[C@@]21C [Fludrocortisone Acetate] | ≤ 80% |  | ≤ 80% | ≤ 80% |  |  |  |
| CC(C)C[C@H]1C(=O)N2CCC[C@H]2[C@]2(O)O[C@](NC(=O)[C@@H]3C=C4c5cccc6[nH]c(Br)c(c56)C[C@H]4N(C)C3)(C(C)C)C(=O)N12 [Bromocriptine Mesylate] | ≤ 80% |  |  |  |  |  |  |
| COc1c(C)c2c(c(O)c1C/C=C(\C)CCC(=O)OCCN1CCOCC1)C(=O)OC2 [Mycophenolate Mofetil] | ≤ 80% | ≤ 80% | ≤ 80% | ≤ 80% |  |  |  |
| CC1(C)O[C@@H]2C[C@H]3[C@@H]4C[C@H](F)C5=CC(=O)CC[C@]5(C)[C@H]4[C@@H](O)C[C@]3(C)[C@]2(C(=O)CO)O1 [Flurandrenolide] | ≤ 80% | ≤ 80% | ≤ 80% | ≤ 80% |  |  |  |
| C[C@@H]1C[C@H]2[C@@H]3CCC4=CC(=O)C=C[C@]4(C)[C@@]3(F)[C@@H](O)C[C@]2(C)[C@H]1C(=O)CO [Desoximetasone] | ≤ 80% | ≤ 80% | ≤ 80% | ≤ 80% |  |  |  |
| Cc1ccc(O)c([C@H](CCN(C(C)C)C(C)C)c2ccccc2)c1 [Tolterodine Tartrate] | ≤ 80% | ≤ 80% |  | ≤ 80% | ≤ 80% |  |  |
| CCc1nc(N)nc(N)c1-c1ccc(Cl)cc1 [Pyrimethamine] | ≤ 80% |  |  |  |  |  |  |
| CC(=O)[C@@]1(O)CC[C@H]2[C@@H]3C[C@H](C)C4=CC(=O)C=C[C@]4(C)[C@@]3(F)[C@@H](O)C[C@@]21C [Fluorometholone] | ≤ 80% |  | ≤ 80% | ≤ 80% |  |  |  |
| CN1CC2c3ccccc3Oc3ccc(Cl)cc3C2C1 (centres unmarked) [Asenapine Maleate] | ≤ 80% |  |  |  |  |  |  |
| CN1C[C@H](C(=O)N[C@]2(C)O[C@@]3(O)[C@@H]4CCCN4C(=O)[C@H](Cc4ccccc4)N3C2=O)C[C@@H]2c3cccc4[nH]cc(c34)C[C@H]21 [Dihydroergotamine Mesylate] | ≤ 80% |  |  |  |  |  |  |

| Structure (SMILES) | activity at 10 µM | activity at 0.01 µM | activity at 0.1 µM | activity at 1 µM | activity at 0.001 µM | activity at 1 pM (agent 1 pM) | activity at 10 pM (agent 10 pM) |
| --- | --- | --- | --- | --- | --- | --- | --- |
| CC1(C)O[C@@H]2C[C@H]3[C@@H]4CCC5=CC(=O)CC[C@]5(C)[C@@]4(F)[C@@H](O)C[C@]3(C)[C@]2(C(=O)CCl)O1 [Halcinonide] | ≤ 80% | ≤ 80% | ≤ 80% | ≤ 80% |  |  |  |
| CC(=O)N1CCN(c2ccc(OCC3COC(Cn4ccnc4)(c4ccc(Cl)cc4Cl)O3)cc2)CC1 (centres unmarked) [Ketoconazole] | ≤ 80% |  |  |  |  |  |  |
| CCC(=O)O[C@]1(C(=O)CCl)[C@@H](C)C[C@H]2[C@@H]3CCC4=CC(=O)C=C[C@]4(C)[C@@]3(F)[C@@H](O)C[C@@]21C [Clobetasol Propionate] | ≤ 80% | ≤ 80% | ≤ 80% | ≤ 80% |  | ≤ 80% |  |
| CC1(C)O[C@@H]2C[C@H]3[C@@H]4CCC5=CC(=O)C=C[C@]5(C)[C@@]4(F)[C@@H](O)C[C@]3(C)[C@]2(C(=O)CO)O1 [Triamcinolone Acetonide] | ≤ 80% | ≤ 80% | ≤ 80% | ≤ 80% |  |  |  |
| CC[C@@H]1/C=C(\C)C[C@H](C)C[C@H](OC)[C@H]2O[C@@](O)(C(=O)C(=O)N3CCCC[C@H]3C(=O)O[C@H](/C(C)=C/[C@@H]3CC[C@H](Cl)[C@H](OC)C3)[C@H](C)[C@@H](O)CC1=O)[C@H](C)C[C@@H]2OC [Pimecrolimus] | ≤ 80% | ≤ 80% |  | ≤ 80% |  |  |  |
| CC(=O)OCC(=O)[C@@]12OC3(CCCC3)O[C@@H]1C[C@H]1[C@@H]3CCC4=CC(=O)C=C[C@]4(C)[C@@]3(F)[C@@H](O)C[C@@]12C [Amcinonide] | ≤ 80% | ≤ 80% | ≤ 80% | ≤ 80% |  |  |  |
| C=C1/C(=C\C=C2/CCC[C@]3(C)[C@@H]([C@H](C)CCCC(C)(C)O)CC[C@@H]23)C[C@@H](O)C[C@@H]1O [Calcitriol] | ≤ 80% |  |  |  |  |  |  |
| COc1c(C)c2c(c(O)c1C/C=C(\C)CCC(=O)O)C(=O)OC2 [Mycophenolic Acid] | ≤ 80% | ≤ 80% | ≤ 80% | ≤ 80% |  |  |  |
| CCCC(=O)O[C@]1(C(=O)COC(C)=O)CC[C@H]2[C@@H]3C[C@H](F)C4=CC(=O)C=C[C@]4(C)[C@@]3(F)[C@@H](O)C[C@@]21C [Difluprednate] | ≤ 80% | ≤ 80% | ≤ 80% | ≤ 80% | ≤ 80% |  |  |
| CC1(C)O[C@@H]2C[C@H]3[C@@H]4C[C@H](F)C5=CC(=O)C=C[C@]5(C)[C@@]4(F)[C@@H](O)C[C@]3(C)[C@]2(C(=O)CO)O1 [Fluocinolone Acetonide] | ≤ 80% | ≤ 80% | ≤ 80% | ≤ 80% |  |  | ≤ 80% |
| O=C1CCc2ccc(OCCCCN3CCN(c4cccc(Cl)c4Cl)CC3)cc2N1 [Aripiprazole] | ≤ 80% |  |  |  |  |  |  |
| C[C@@H]1C[C@H]2[C@@H]3CCC4=CC(=O)C=C[C@]4(C)[C@@]3(Cl)[C@@H](O)C[C@]2(C)[C@@]1(OC(=O)c1ccco1)C(=O)CCl [Mometasone Furoate] | ≤ 80% | ≤ 80% | ≤ 80% | ≤ 80% |  |  |  |
| C[C@]12CC[C@@H]3c4ccc(O)cc4C[C@@H](CCCCCCCCC[S+]([O-])CCCC(F)(F)C(F)(F)F)[C@H]3[C@@H]1CC[C@@H]2O (some centres unmarked) [Fulvestrant] | ≤ 80% | ≤ 80% | ≤ 80% | ≤ 80% |  |  |  |
| C[C@H]1C[C@H]2[C@@H]3CCC4=CC(=O)C=C[C@]4(C)[C@@]3(F)[C@@H](O)C[C@]2(C)[C@@]1(O)C(=O)CO [Betamethasone] | ≤ 80% |  | ≤ 80% | ≤ 80% |  |  |  |
| O=C(O)c1ccc(-n2nc(-c3ccccc3O)nc2-c2ccccc2O)cc1 [Deferasirox] | ≤ 80% |  |  |  |  |  |  |
